Measured values reported in patent US9823260B2, “Method to increase bioavailability of the delta-opioid receptor for management of pain and neuropsychiatric disorders” (priority 2014, dated 2017).

How the values were obtained:
Type in all cases: in vivo
[1] = tested on: male C57BL6J mice; assay: Warm water tail withdrawal assay (thermal nociception)
Description: (§1) The first three graphs in FIG. 2 show the function response of DOR on the surface. An EPAC FRET sensor was used with live cell imaging under physiologic conditions of 37° C. The modulation of the cAMP activity was determined by performing a ratiometric analysis of an the donor fluorophore (Cyan Fluorescent Protein) image divided by the FRET image yielding a blue color for low cAMP and red for high cAMP. DOR was concomitantly visualized by fluorescent tagging. […] The two images on the bottom-right of FIG. 2 show data in an experiment in which mechanical allodynia and tail withdrawal latency was performed in male C57BL6J mice 9-10 weeks old to determine the effects of the DOR agonist SNC-80 in the presence or absence of PTEN inhibition. […] All mice received SNC-80 (10 mg/kg IP). Additionally, pretreatment of mice with the PTEN inhibitor bpv(Phen) increased the antinociceptive effect of the DOR agonist SNC-80. Together, these methods can be used for stimulated DOR delivery as a convergent strategy for improving the efficacy of DOR agonists.
In this experiment, thermal nociception was determined by using the warm water tail withdrawal assay, with a cut-off of 12 s at 52.5° C. water temperature. After 3 basal measurements, mice were injected with vehicle or bpv(phen)(10 mg/kg SC), and returned to their home cages. […] They were subsequently tested every 15 minutes for 90 minutes. All animals were male C57b16J mice of 9-10 weeks of age, n=8 per group. […] Mechanical allodynia was tested using standard protocols (such as the protocols disclosed by Pradhan et al., 2009, PMID: 1941254) on male C57b16J mice 9-10 weeks old, n=8 per group. Mice were injected with vehicle or bpv(phen)(10 mg/kg), and tested four hours after for reduced allodynia in response to SNC-80. […] Mechanical hyperalgesia was tested in a CFA model for chronic pain. […]
As shown next in FIG. 12 (left), thermal nociception was determined by using the warm water tail withdrawal assay, with a cut-off of 12 s at 52.5° C. water temperature. […]

[2] = tested on: male C57BL6J mice; assay: Mechanical allodynia test
Description: as §1, with “Additionally, pretreatment of mice with the PTEN inhibitor bpv(Phen) increased the antinociceptive effect of the DOR agonist SNC-80. Together, these methods can be used for stimulated DOR delivery as a convergent strategy for improving the efficacy of DOR agonists.” left out
(§2) In this experiment, thermal nociception was determined by using the warm water tail withdrawal assay, with a cut-off of 12 s at 52.5° C. water temperature. […] Four hours post-injection, tail immersion responses were determined and mice were injected with vehicle or SNC80 (10 mg/kg IP). […]
as §2, with “As shown next in FIG. 12 (left),” for “In this experiment,”

[3] = tested on: mice; assay: Mechanical hyperalgesia in a CFA model for chronic pain; settings: CFA 72 hours; bpv(phen) 10 mg/kg SC, four hours later SNC 80 3 mg/kg IP
Description: In this experiment, thermal nociception was determined by using the warm water tail withdrawal assay, with a cut-off of 12 s at 52.5° C. water temperature. After 3 basal measurements, mice were injected with vehicle or bpv(phen)(10 mg/kg SC), and returned to their home cages. Four hours post-injection, tail immersion responses were determined and mice were injected with vehicle or SNC80 (10 mg/kg IP). They were subsequently tested every 15 minutes for 90 minutes. All animals were male C57b16J mice of 9-10 weeks of age, n=8 per group. […] Mechanical allodynia was tested using standard protocols (such as the protocols disclosed by Pradhan et al., 2009, PMID: 1941254) on male C57b16J mice 9-10 weeks old, n=8 per group. Mice were injected with vehicle or bpv(phen)(10 mg/kg), and tested four hours after for reduced allodynia in response to SNC-80. […] Mechanical hyperalgesia was tested in a CFA model for chronic pain. After baseline recordings, mice were injected with CFA (13 μl, intraplantar) and were tested 72 hours later. On the test day, mice received either bpv(phen)(10 mg/kg SC) or vehicle. […]
as §2, with “As shown next in FIG. 12 (left),” for “In this experiment,”

[4] = 2 hour pretreatment with bpV(phen) 10 mg/kg, SNC-80 10 mg/kg IP, versus vehicle

For `O.O.O.OO.OO.[K+].[OH-].[V].c1cnc2c(c1)ccc1cccnc12` [bpV(phen)], which “tail withdrawal latency with SNC-80” value [1, 4] is on record?
Its value is “increased compared to vehicle control treated mice”.

And the “analgesic response to PTEN inhibition alone” value ([1]; bpV(phen) without SNC-80, mechanical allodynia and tail withdrawal)?
Its value is “did not induce an analgesic response”.

What about the “tail immersion response versus baseline without SNC80” value ([1]; vehicle or bpv(phen) 10 mg/kg SC, no SNC80, 52.5° C., tested every 15 minutes for 90 minutes) of the same molecule?
The value was “did not show any significant deviation from the baseline”.

And the “mechanical allodynia (threshold) with SNC-80” value [2, 4]?
The value was “increased compared to vehicle control treated mice”.

And the “reduced allodynia in response to SNC-80” value ([2]; bpv(phen) 10 mg/kg, tested four hours after)?
Its value is “showed a response”.

And the “mechanical hyperalgesia response to SNC 80” value [3]?
Its value is “showed a response to SNC80”.
